Data from patent publication US9096494B2, “Arachidonic acid analogs and methods for analgesic treatment using same” (priority 2009, dated 2015).
Where “and” joins values, the source holds several entries; their conditions need not be identical. Equal values may be shown once.

How the values were obtained:
mice [1] = test: Writhing assay in mouse (bolus and continuous infusion); format: in vivo; settings: for dose dependence of the level of analgesia: mouse writhing assay
[2] = target: T1, MT1(ML1A) agonist-Melatonin (Homo sapiens, UniProt P48039); test: Cerep BioPrint receptor binding
T1 construct: Cerep (contract screen)

A3 agonist-Adenosine A3 = target: T2, A3 agonist-Adenosine A3 (Homo sapiens, UniProt P0DMS8); test: Cerep BioPrint receptor binding
T2 construct: Cerep (contract screen)

CB1 Cannabinoid agonist = target: T3, CB1 Cannabinoid agonist (Homo sapiens, UniProt P21554); test: Cerep BioPrint receptor binding
T3 construct: Cerep (contract screen)
Description: (§1) For the initial BioPrint screen, a free compound concentration of 10 μM was used, which corresponds to a 2.5 mg/kg bolus dose in a mouse. […] Thus, a 2.5 mg/kg bolus dose would be equivalent to a […] free compound concentration.

CB2 Cannabinoid agonist = target: T4, CB2 Cannabinoid agonist (Homo sapiens, UniProt P34972); test: Cerep BioPrint receptor binding
T4 construct: Cerep (contract screen)
Description: as §1

δ- opioid agonist = target: T5, δ- opioid agonist (Homo sapiens, UniProt P41143); test: Cerep BioPrint receptor binding
T5 construct: Cerep (contract screen)
Description: as §1

κ-opioid agonist = target: T6, κ-opioid agonist (Rattus norvegicus, UniProt P34975); test: Cerep BioPrint receptor binding
T6 construct: Cerep (contract screen)
Description: as §1

[3] = target: CL-Channel (GABA gated) antagonist; test: Cerep BioPrint receptor binding
TRPV1(VR1) agonist = target: T7, TRPV1(VR1) agonist (Rattus norvegicus, UniProt O35433); test: Cerep BioPrint receptor binding
T7 construct: Cerep (contract screen)

[4] = target: PPRA-Peroxisome proliferator-activated (Homo sapiens, UniProt P37231); test: Cerep BioPrint receptor binding
Adenosine/A2A = target: T8, Adenosine/A2A (Homo sapiens, UniProt P29274); test: Cerep BioPrint dependence and addiction panel; format: binding
T8 construct: Cerep (contract screen)

Dopamine/D1 = Dopamine/D1 (Homo sapiens, UniProt P21728); test: Cerep BioPrint dependence and addiction panel; format: binding
Dopamine/D2S = Dopamine/D2S (Homo sapiens, UniProt P14416); test: Cerep BioPrint dependence and addiction panel; format: binding
Dopamine/D3 = Dopamine/D3 (Homo sapiens, UniProt P35462); test: Cerep BioPrint dependence and addiction panel; format: binding
GABA/GABAA = test: Cerep BioPrint dependence and addiction panel; format: binding
GABA/GABAB(1b) = target: T9, GABA/GABAB(1b) (Homo sapiens, UniProt Q9UBS5); test: Cerep BioPrint dependence and addiction panel; format: binding
T9 construct: Cerep (contract screen)

Glutamate/AMPA = test: Cerep BioPrint dependence and addiction panel; format: binding
Glutamate/PCP = test: Cerep BioPrint dependence and addiction panel; format: binding
Serotonin/5-HT1A = target: T10, Serotonin/5-HT1A (Homo sapiens, UniProt P08908); test: Cerep BioPrint dependence and addiction panel; format: binding
T10 construct: Cerep (contract screen)

Serotonin/5-Ht2A = target: T11, Serotonin/5-Ht2A (Homo sapiens, UniProt P28223); test: Cerep BioPrint dependence and addiction panel; format: binding
T11 construct: Cerep (contract screen)

Serotonin/5-HT3 = Serotonin/5-HT3 (Homo sapiens, UniProt P46098); test: Cerep BioPrint dependence and addiction panel; format: binding
[5] = tested on: Sigma/Sigma non selective; test: Cerep BioPrint dependence and addiction panel; format: binding
Cholecystokinin/CCK2 = target: T12, Cholecystokinin/CCK2 (Homo sapiens, UniProt P32239); test: Cerep BioPrint dependence and addiction panel; format: binding
T12 construct: Cerep (contract screen)

Melanocortin/MC4 = target: T13, Melanocortin/MC4 (Homo sapiens, UniProt P32245); test: Cerep BioPrint dependence and addiction panel; format: binding
T13 construct: Cerep (contract screen)

Opioid/mu(MOP) = target: T14, Opioid/mu(MOP) (Homo sapiens, UniProt P35372); test: Cerep BioPrint dependence and addiction panel; format: binding
T14 construct: Cerep (contract screening panel)

Opioid/NOP(ORL1) = target: T15, Opioid/NOP(ORL1) (Homo sapiens, UniProt P41146); test: Cerep BioPrint dependence and addiction panel; format: binding
T15 construct: Cerep (contract screening panel)

Steroid nuclear/GR = target: T16, Steroid nuclear/GR (Homo sapiens, UniProt P04150); test: Cerep BioPrint dependence and addiction panel; format: binding
T16 construct: Cerep (contract screening panel)

[6] = tested on: Dopamine transporter/5HT transporter; test: Cerep BioPrint dependence and addiction panel; format: binding
[7] = target: T17, Dopamine/dopamine transporter (Homo sapiens, UniProt Q01959); test: Cerep BioPrint dependence and addiction panel; format: binding
T17 construct: Cerep (contract screening panel)

[8] = target: T18, Serotonin/5HT transporter (Homo sapiens, UniProt P31645); test: Cerep BioPrint dependence and addiction panel; format: binding
T18 construct: Cerep (contract screening panel)

ATPase/ATPase(Na+/K+) = test: Cerep BioPrint dependence and addiction panel (enzyme); format: biochemical
plasma or serum proteins = test: Binding to plasma or serum proteins; format: in vitro ADME
Description: as §1

dopamine levels = test: Effect on dopamine levels; settings: compared with Δ9-THC
[9] = tested on: CB1 cannabinoid knockout mice; test: Analgesic effect in CB1 cannabinoid knockout mice; format: in vivo; settings: CB1 cannabinoid knockout mice (homozygotes)
[10] = tested on: TRPV1 vanilloid knockout mice; test: Analgesic effect in TRPV1 vanilloid knockout mice; format: in vivo; settings: TRPV1 vanilloid knockout mice (homozygotes)
mice [11] = test: Tail-flick assay in mouse; format: in vivo; settings: for time to maximal (full) analgesic response, tail-flick: 10 mg/kg intravenous bolus
Description: The tail-flick assay is based on the time measured to reflex withdrawal of the tail in response to a radiant heat source. The maximum exposure time to the radiant heat source is set at 10 seconds. Prior to treatment, a baseline (BL) time measured to tail-flick withdrawal is determined after two exposures to the radiant source separated by a 30 min period. Control mice are intravenously treated with vehicle and test mice are intravenously treated with analgesic test compound. Data of tail-flick withdrawal of treated mice (TM) are calculated as maximum possible effect (MPE), where MPE=(TM−BL)/(10−BL). Tail-flick withdrawal is measured at 5 min, 15 min, 30 mm, and 1 hr. A total of 3-5 mice are used for each time point tested.

[12] = LD50 established using mice; format: in vivo; settings: in vivo, body surface area translation mouse to human
Description: (§2) LD50 (abbreviation for “Lethal Dose, 50%”) is established using mice. The dose translation between mouse and human is based on body surface area allometric translation. For example, a 1 mg/kg mouse dose is equivalent to a 0.08 mg/kg human dose. For more information on species dose translation see: Reagan-Shaw et. al, FASEB J. 122, 659-661 (2007).

mice [13] = test: LD50 established using mice; format: in vivo
Description: as §2

Antipyretic effect = format: in vivo, mice; settings: CMX-020 Injectable Solution
Description: CMX-020 Injectable Solution may also be given to patients during surgery or dental procedures to relieve pain and as an adjunct to an anaesthetic.
Recordings of body temperature in male mice (30 grams) were achieved using a mouse rectal temperature probe. Baseline was recorded twice for 10 minutes at intervals of 2 minutes with a 15 minute span of no recording.

[14] = Analgesic potency comparison with natural EETs and AM404; settings: in vivo
Description: Chemically, it is close structural analog of a set of lipid mediators derived from arachidonic acid that the body uses to control pain.

in vivo = settings: mouse, iv, 10 mg/kg
[15] = Intravenous analgesia: onset and duration of effect; settings: for time to peak effect: animal tests; for onset of analgesia after intravenous bolus injection or infusion: from the start of injection; for duration of analgesic effect from bolus injection: intravenous bolus
[16] = LC/MS pharmacokinetics of CMX-020 in mice (plasma, brain, liver); settings: 15 min timepoint, 10 mg/kg iv, n=2 individual values
[17] = CMX-020 Injectable Emulsion, from mouse writhing assay
[18] = continuous infusion, from mouse writhing assay

T3 sequence (P21554 whole entry): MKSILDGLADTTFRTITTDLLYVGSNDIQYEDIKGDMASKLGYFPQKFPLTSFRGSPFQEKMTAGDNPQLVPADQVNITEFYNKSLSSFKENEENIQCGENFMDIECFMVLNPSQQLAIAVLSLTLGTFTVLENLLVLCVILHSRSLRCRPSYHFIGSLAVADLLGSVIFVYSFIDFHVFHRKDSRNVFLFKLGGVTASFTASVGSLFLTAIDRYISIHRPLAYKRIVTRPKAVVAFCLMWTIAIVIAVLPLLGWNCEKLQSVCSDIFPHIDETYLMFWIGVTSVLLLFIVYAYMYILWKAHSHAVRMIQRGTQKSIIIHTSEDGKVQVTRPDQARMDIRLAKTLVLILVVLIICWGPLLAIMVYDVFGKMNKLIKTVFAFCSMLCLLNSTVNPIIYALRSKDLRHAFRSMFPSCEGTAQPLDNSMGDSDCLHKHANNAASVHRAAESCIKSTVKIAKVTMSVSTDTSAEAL
T1 sequence (P48039 whole entry): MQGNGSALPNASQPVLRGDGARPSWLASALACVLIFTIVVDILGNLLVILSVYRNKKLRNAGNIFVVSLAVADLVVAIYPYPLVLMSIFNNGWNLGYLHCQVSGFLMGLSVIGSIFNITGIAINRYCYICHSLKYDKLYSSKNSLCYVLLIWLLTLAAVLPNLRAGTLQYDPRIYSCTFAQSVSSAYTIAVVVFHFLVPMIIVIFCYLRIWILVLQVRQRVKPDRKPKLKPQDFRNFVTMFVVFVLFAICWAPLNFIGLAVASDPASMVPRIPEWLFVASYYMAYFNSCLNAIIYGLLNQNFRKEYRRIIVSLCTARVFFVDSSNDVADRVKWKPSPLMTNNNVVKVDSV
T4 sequence (P34972 whole entry): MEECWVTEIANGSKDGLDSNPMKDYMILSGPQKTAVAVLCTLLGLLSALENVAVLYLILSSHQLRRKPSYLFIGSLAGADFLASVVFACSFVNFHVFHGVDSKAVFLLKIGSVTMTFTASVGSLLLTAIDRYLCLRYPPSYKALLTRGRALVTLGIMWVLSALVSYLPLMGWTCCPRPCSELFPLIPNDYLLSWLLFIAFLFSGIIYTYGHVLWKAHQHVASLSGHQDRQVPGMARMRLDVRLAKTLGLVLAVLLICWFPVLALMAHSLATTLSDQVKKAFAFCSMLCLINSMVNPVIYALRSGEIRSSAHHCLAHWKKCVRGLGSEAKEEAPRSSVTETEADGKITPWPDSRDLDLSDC
T6 sequence (P34975 whole entry): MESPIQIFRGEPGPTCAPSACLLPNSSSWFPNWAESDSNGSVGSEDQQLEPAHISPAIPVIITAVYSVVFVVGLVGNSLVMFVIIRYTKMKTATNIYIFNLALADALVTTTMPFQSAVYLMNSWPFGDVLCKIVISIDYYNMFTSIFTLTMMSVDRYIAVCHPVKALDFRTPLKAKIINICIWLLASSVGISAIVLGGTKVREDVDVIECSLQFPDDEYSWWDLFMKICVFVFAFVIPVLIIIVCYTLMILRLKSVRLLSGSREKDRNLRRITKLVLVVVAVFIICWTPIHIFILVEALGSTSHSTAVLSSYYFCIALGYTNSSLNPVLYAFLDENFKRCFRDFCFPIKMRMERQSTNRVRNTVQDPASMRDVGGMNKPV
T7 sequence (O35433 whole entry): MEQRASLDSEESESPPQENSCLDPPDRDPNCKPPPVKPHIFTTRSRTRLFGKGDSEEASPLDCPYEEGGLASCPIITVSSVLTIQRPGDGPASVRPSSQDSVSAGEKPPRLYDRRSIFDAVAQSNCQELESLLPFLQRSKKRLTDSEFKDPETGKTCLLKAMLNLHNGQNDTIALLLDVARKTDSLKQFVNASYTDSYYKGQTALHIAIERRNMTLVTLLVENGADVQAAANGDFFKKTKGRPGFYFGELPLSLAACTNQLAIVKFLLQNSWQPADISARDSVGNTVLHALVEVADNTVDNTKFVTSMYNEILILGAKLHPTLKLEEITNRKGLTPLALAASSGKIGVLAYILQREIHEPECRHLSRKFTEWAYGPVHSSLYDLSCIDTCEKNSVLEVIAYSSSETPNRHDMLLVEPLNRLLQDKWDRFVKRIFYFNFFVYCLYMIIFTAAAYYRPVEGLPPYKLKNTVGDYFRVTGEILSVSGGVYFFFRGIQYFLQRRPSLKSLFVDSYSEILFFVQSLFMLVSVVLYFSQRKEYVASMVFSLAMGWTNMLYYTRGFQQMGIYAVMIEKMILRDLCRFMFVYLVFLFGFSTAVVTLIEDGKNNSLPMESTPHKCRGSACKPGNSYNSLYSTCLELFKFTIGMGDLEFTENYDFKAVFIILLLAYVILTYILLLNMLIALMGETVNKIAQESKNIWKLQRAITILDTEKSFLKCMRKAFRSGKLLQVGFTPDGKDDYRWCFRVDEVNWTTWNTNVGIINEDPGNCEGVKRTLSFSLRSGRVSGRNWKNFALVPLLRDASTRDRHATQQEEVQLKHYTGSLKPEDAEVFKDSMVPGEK
T5 sequence (P41143 whole entry): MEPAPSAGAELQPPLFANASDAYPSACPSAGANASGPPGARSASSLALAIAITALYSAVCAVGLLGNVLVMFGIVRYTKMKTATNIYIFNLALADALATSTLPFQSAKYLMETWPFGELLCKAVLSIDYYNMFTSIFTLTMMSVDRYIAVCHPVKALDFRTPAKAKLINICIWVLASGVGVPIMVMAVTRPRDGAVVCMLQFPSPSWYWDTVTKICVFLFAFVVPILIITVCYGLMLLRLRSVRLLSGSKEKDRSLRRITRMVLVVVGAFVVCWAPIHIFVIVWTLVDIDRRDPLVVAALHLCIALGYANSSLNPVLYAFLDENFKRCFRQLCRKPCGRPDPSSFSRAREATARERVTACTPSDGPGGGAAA
T2 sequence (P0DMS8 whole entry): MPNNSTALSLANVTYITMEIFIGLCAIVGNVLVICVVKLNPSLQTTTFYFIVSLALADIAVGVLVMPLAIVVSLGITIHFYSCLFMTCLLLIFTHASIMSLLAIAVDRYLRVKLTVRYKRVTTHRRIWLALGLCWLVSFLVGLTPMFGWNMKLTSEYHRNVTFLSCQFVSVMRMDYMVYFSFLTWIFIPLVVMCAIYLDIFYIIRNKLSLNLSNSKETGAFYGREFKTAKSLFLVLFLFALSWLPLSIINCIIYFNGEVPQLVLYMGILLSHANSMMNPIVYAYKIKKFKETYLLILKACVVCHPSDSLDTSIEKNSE
T18 sequence (P31645 whole entry): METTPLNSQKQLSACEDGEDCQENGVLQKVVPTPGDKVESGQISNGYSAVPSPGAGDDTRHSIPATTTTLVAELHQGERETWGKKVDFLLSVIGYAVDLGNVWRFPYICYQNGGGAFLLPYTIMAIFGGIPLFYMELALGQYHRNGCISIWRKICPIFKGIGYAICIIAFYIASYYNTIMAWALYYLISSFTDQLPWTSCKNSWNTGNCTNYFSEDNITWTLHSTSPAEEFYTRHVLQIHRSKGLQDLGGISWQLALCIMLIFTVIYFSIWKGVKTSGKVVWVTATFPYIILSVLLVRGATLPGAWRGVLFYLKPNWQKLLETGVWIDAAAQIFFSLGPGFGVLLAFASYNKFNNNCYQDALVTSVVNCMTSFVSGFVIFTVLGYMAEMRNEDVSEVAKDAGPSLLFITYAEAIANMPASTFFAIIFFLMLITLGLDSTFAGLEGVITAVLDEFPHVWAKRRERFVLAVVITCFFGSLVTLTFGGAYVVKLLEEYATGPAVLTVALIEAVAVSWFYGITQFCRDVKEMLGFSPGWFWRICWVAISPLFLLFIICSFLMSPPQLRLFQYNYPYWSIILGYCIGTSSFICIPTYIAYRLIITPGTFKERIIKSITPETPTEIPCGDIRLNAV
T10 sequence (P08908 whole entry): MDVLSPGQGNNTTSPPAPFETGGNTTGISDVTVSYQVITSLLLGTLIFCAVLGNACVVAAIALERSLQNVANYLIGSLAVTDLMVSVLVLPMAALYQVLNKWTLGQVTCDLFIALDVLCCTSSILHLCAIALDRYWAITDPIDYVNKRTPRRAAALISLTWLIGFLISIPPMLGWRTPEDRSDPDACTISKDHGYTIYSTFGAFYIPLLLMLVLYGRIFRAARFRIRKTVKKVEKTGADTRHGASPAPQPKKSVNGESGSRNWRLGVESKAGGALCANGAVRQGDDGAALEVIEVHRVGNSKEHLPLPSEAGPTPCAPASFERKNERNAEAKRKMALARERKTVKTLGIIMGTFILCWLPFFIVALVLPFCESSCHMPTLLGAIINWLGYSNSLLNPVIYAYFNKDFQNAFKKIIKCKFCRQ
Serotonin/5-HT3, sequence (P46098 24-478): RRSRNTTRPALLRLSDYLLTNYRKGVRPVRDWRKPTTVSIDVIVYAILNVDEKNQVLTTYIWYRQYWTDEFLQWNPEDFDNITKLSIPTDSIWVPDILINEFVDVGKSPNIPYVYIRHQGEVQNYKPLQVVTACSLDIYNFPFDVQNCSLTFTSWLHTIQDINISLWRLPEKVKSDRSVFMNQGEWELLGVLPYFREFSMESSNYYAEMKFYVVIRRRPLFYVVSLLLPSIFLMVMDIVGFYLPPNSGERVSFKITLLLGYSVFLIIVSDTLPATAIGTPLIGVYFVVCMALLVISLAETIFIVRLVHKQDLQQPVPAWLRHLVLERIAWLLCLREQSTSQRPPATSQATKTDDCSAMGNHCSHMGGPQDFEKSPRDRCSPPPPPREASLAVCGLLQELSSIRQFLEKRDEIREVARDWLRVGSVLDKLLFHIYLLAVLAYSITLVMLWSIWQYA
T13 sequence (P32245 whole entry): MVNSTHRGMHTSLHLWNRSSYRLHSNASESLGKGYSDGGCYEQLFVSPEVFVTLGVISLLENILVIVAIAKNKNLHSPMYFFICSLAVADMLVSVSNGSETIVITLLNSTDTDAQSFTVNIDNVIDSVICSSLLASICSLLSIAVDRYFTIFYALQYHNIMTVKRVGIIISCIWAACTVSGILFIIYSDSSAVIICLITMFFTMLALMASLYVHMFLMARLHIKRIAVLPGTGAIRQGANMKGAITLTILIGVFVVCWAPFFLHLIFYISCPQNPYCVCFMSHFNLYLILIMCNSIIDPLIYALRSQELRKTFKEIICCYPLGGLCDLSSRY

CC(=O)Nc1ccc(O)cc1 [acetaminophen, reference compound]
dose dependence of the level of analgesia (mice [1]): not dose dependent

CCCCCC(=O)N(CC/C=C\C/C=C\C/C=C\CCCC(=O)NC1CC1)C(C)C [CMX-020]
IC50 [2]: 1.2 µM
inhibition at 10 µM ([2]; MT1(ML1A) agonist-Melatonin, 10 uM): 88%
IC50 (A3 agonist-Adenosine A3): 2.6 µM
inhibition at 10 µM (A3 agonist-Adenosine A3; A3 agonist-Adenosine A3, 10 uM): 64%
IC50 (CB1 Cannabinoid agonist): 0.021 µM
inhibition at 10 µM (CB1 Cannabinoid agonist; CB1 Cannabinoid agonist, 10 uM): 98%
IC50 (CB2 Cannabinoid agonist): 0.15 µM
inhibition at 10 µM (CB2 Cannabinoid agonist; CB2 Cannabinoid agonist, 10 uM): 98%
IC50 (δ- opioid agonist): 13 µM
inhibition at 10 µM (δ- opioid agonist; δ- opioid agonist, 10 uM): 52%
IC50 (κ-opioid agonist): 4.7 µM
inhibition at 10 µM (κ-opioid agonist; κ-opioid agonist, 10 uM): 61%
IC50 [3]: 5.1 µM
IC50 (TRPV1(VR1) agonist): 7.5 µM
% Inhibition @10 uM (TRPV1(VR1) agonist; TRPV1(VR1) agonist, 10 uM): 59%
inhibition at 10 µM [4]: 58%
inhibition at 10 µM (Adenosine/A2A): 7%
% Inhibition @10 uM (Dopamine/D1): 7%
% Inhibition @10 uM (Dopamine/D2S): 8%
% Inhibition @10 uM (Dopamine/D3): 25%
% Inhibition @10 uM (GABA/GABAA): 11%
inhibition at 10 µM (GABA/GABAB(1b)): -6%
% Inhibition @10 uM (Glutamate/AMPA): 9%
% Inhibition @10 uM (Glutamate/PCP): −6%
% Inhibition @10 uM (Serotonin/5-HT1A): 26%
inhibition at 10 µM (Serotonin/5-Ht2A): 29%
% Inhibition @10 uM (Serotonin/5-HT3): −1%
% Inhibition @10 uM [5]: 31%
inhibition at 10 µM (Cholecystokinin/CCK2): -27%
inhibition at 10 µM (Melanocortin/MC4): 0%
inhibition at 10 µM (Opioid/mu(MOP)): 26%
inhibition at 10 µM (Opioid/NOP(ORL1)): 5%
inhibition at 10 µM (Steroid nuclear/GR): 9%
% Inhibition @10 uM [6]: 15%
inhibition at 10 µM [7]: 15%
inhibition at 10 µM [8]: 10%
% Inhibition @10 uM (ATPase/ATPase(Na+/K+)): 12%
fraction unbound (plasma or serum proteins): ~0.01
effect on dopamine levels (dopamine levels): does not elevate dopamine levels
analgesic effect in knockout mice [9]: almost completely blocked
analgesic effect in knockout mice [10]: altered
time to maximal (full) analgesic response, tail-flick (mice [11]): 5 min
continuous infusion dose producing roughly the same level of analgesia (roughly 50% MPE), writhing assay (mice [1]; 24 hour infusion by Alzet pump, measured at 3 hours and 20 hours, preliminary): 2 mg/kg/h
analgesic response compared with Perfalgan 12.5 mg/kg, writhing assay (mice [1]; CMX-020 0.05 mg/kg): higher analgesic response than Perfalgan
Analgesic Equivalent to Acetaminophen 2x, Bolus dose (mice [1]; [17]): 0.02 mg/kg
Analgesic Equivalent to Acetaminophen 3x, Bolus dose (mice [1]; [17]): 0.04 mg/kg
time over which analgesic levels are sustained by continuous infusion (mice [1]; continuous infusion in mice): 24 h
Analgesic Equivalent to Acetaminophen 1x, Maintenance dose (mice [1]; [18]): 0.08 mg/kg/h
Analgesic Equivalent to Acetaminophen 2x, Maintenance dose (mice [1]; [18]): 0.16 mg/kg/h
Analgesic Equivalent to Acetaminophen 3x, Maintenance dose (mice [1]; [18]): 0.32 mg/kg/h
Analgesic Equivalent to Acetaminophen 1x, Bolus dose (mice [1]; for a 70 kg human): 0.6 mg
Analgesic Equivalent to Acetaminophen 1x, Maintenance dose (mice [1]; for a 70 kg human): 6 mg/h
Analgesic Equivalent to Acetaminophen 2x, Bolus dose (mice [1]; for a 70 kg human): 1.4 mg
Analgesic Equivalent to Acetaminophen 2x, Maintenance dose (mice [1]; for a 70 kg human): 11 mg/h
Analgesic Equivalent to Acetaminophen 3x, Bolus dose (mice [1]; for a 70 kg human): 2.8 mg
Analgesic Equivalent to Acetaminophen 3x, Maintenance dose (mice [1]; for a 70 kg human): 23 mg/h
dose achieving 100% MPE, writhing assay (mice [1]; intravenous bolus): approximately 0.5 mg/kg
dose dependence of the level of analgesia (mice [1]): dose dependent
Analgesic Equivalent to Acetaminophen 1x, Bolus dose (mice [1]; mouse, in vivo, iv): 0.01 mg/kg
LD50 [12]: 2.4 mg/kg
LD50 CMX-020 Doses, Maintenance (mice [13]; body surface area translation mouse to human): 6.4 mg/kg/h
LD50 CMX-020 Doses, Bolus (mice [13]; for a 70 kg human): 170 mg
LD50 CMX-020 Doses, Maintenance (mice [13]; for a 70 kg human): 450 mg/h
duration of the antipyretic effect after ending administration (Antipyretic effect): at least 2 hours
time to fever reduction after the start of administration (Antipyretic effect): ≤ 30 min
analgesic potency in side-by-side comparison with AM404 [14]: more potent analgesic without the toxic effects
concentration at 15 min (in vivo; brain): 704 ng/g
concentration at 60 min (in vivo; brain): < 20 ng/g
concentration at 15 min (in vivo; liver): 170 ng/g
concentration at 60 min (in vivo; liver): < 20 ng/g
C0 (in vivo; plasma): ~14000 ng/mL and ~33 µM
half-life (in vivo; plasma): ~17 min
solubility in water (Solubility in water): very slightly soluble
time to peak effect [15]: within minutes
time for which sustained levels of analgesia can be maintained ([15]; continuous infusion): ≥ 48 h
onset of analgesia after intravenous bolus injection or infusion [15]: 3 to 5 min
half-time of the blood-brain equilibration ([15]; intravenous): 1 to 3 min
duration of analgesic effect from bolus injection [15]: 20 to 30 min and 20 to 25 min
amount present in brain [16]: 843 ng/g tissue
amount present in liver [16]: 211 ng/g tissue

CCCCCC1OC1C/C=C\C/C=C\C/C=C\CCCC(=O)O (stereo not drawn) [14,15-EET, 14,15-EET (epoxyeicosatrienoic acid), reference compound]
analgesic potency relative to natural EETs [14]: most potent analgesic of the natural EETs

CN1CC[C@]23c4c5ccc(O)c4O[C@H]2[C@@H](O)C=C[C@H]3[C@H]1C5 [Morphine, morphine, reference compound]
time to maximal (full) analgesic response, tail-flick (mice [11]): 15 min
dose needed in tail-flick assay relative to writhing assay for a moderate level of efficacy (mice [11]; intravenous): roughly 100 ×
continuous infusion dose producing roughly the same level of analgesia (roughly 50% MPE), writhing assay (mice [1]; mouse, in vivo): 1 mg/kg/h
time over which analgesic levels are sustained by continuous infusion (mice [1]; mouse, in vivo): 24 h
dose achieving 100% MPE, writhing assay (mice [1]; mouse, in vivo, iv): approximately 0.5 mg/kg
time to peak effect [15]: 15 to 40 min
onset of analgesia after intravenous bolus injection or infusion [15]: 20 min
duration of analgesic effect from bolus injection [15]: 35 to 40 min
